Data as given in patent publication US20130005718A1 (priority 2009, published 2013).
Values joined by “and” are separate entries in the source; they are usually repeats but may differ in a detail not shown here. Identical values can stand only once. “Also recorded” adds a separate entry of the source.

Tests used:
[1] = equivalent ionic conditions; cited from earlier work
[2] = Experimental: Serial dilutions were then dispersed into the aqueous recording solutions maintaining the DMSO concentration at 0.04% (W/V). […] To this end, appropriate masses of 2,6-DTBP and DHβCD that would yield 6 ml of 1% 2,6-DTBP, in combination with 40% DHβCD, were combined in a Teflon® capped borosilicate vial and heated to 60° C. in a water bath. This temperature is above the melting point of 2,6-DTBP (36° C. (Lorenc et al., 2003) but below that of DHβCD (>200° C. (Loftsson et al., 1996) and is compatible with stability of both reagents (Lorenc et al., 2003; Loftsson et al., 1996 and CAS documentation). After 15 minutes, the molten 2,6-DTBP was intimately mixed with the DHβCD by vigorous vortexing, 200 μl of 60° C. DI H2O added and, following additional vortexing, the vial returned to the water bath for 15-30 minutes. Following addition of 3 more 200 μl aliquots of deionized water (DI H2O), with corresponding incubation and vortexing, the sample was left at 60° C. overnight. The resulting colorless viscous gel was slowly diluted by addition of the required volume of DI H2O adding no more than 200 μl at a time with 15-30 minutes incubation at 60° C. and vortexing after each addition.
The injection port and FID were at 280° C. while the column temperature was 210° C. The split ratio was 2:1 while the column flow was 6.96 ml/min with helium (linear velocity 65 cm/s).
Samples and standards were prepared as follows. To 200 μl of whole blood (drawn following injection of DHβCD or 2,6-DTBP solubilized in DHβCD), 200 μl of chloroform containing 100 nM thymol (Sigma) as internal standard and 2 μl of DMSO were added. Following mixing (vortex for 20 seconds followed by 30 minutes on a rotator) and subsequent centrifugation (5000×g for 10 minutes at 10° C.), the chloroform phase was transferred into a glass gas chromatography vial and washed with an equal volume of 0.5 M NaOH. […] DHβCD was added to the DMSO-solubilized 2,6-DTBP sample and DMSO was added to the DHβCD-solubilized 2,6-DTBP sample so that the final concentrations of DHβCD and DMSO were equivalent. […]

[3] = in vivo; cited from earlier work
mice [4] = assay: Acute toxicity of 2,6-DTBP (behavior and survival); assay type: in vivo
Experimental: (§1) To examine 2,6-DTBP bioavailability, 32 mice received dihydroxy-β-cyclodextrin (DHβCD) solubilized 2,6-DTBP (see below), DHβCD alone or saline by intraperitoneal (i.p.) injection with a dosing schedule as per behavioral testing (see below). 10-60 minutes after receipt of the appropriate final dose, mice were anesthetized with 2.5-3% isoflurane then exsanguinated by venous puncture. Blood concentration of 2,6-DTBP was determined by gas chromatography (see below). To consider toxicity of a high acute therapeutic dose of 2,6-DTBP, some animals received a single bolus of 80 mg/kg. To consider toxicity of an acute hyper-therapeutic dose of 2,6-DTBP, all animals that received three 40 mg/kg therapeutic doses during animal behavior experiments received a 120 mg/kg bolus immediately after the 180 minutes of behavioral testing window, thereby raising the cumulative dose to 240 mg/kg. The general condition of all of these animals was followed by qualitative observation of behavior (grooming and exploration) and survival. All animals were sacrificed within 7 days after receipt of a 2,6-DTBP/DHβCD injection.

[5] = variously reported; cited from earlier work
HCN1 channels = target: T1, HCN1 channels (Mus musculus, UniProt O88704); assay: Two-electrode voltage clamp (TEVC) of HCN1 channel gating in Xenopus oocytes; assay type: cell-based, murine; details: for HCN isoform preference (words): HCN1 versus HCN2, 3 or 4
T1 construct: expressed in transfected cells; host or cells: Xenopus oocytes (cRNA injection)

[6] = test system: PNL-induced mechanical allodynia and hyperalgesia; assay: Von Frey fiber test after partial sciatic nerve ligation (PNL); assay type: in vivo, C57 Black/6J mice
[7] = assay type: in vivo, mice
Experimental: Samples and standards were prepared as follows.
For the standard calibration curve, aliquots of 2,6-DTBP acutely solubilized in DMSO were added to 200 μl of chloroform plus the thymol internal standard (total DMSO addition was 2 μl in all cases). 200 μl of H2O were then added and the samples were processed as described above. In all cases, 2 μl of the chloroform phase was injected for analysis.
as §1

mice [8] = details: i.v. 80-100 mg/kg; cited from earlier work
[9] = test system: PNL-induced thermal hyperalgesia; assay: Hind paw withdrawal latency (HPWL) to heat source after PNL; assay type: in vivo, C57 Black/6J mice; details: i.p., 15% heat stimulus
[10] = listed as 2,6-di-tert-butylphenol

T1 sequence (O88704 whole entry, canonical isoform): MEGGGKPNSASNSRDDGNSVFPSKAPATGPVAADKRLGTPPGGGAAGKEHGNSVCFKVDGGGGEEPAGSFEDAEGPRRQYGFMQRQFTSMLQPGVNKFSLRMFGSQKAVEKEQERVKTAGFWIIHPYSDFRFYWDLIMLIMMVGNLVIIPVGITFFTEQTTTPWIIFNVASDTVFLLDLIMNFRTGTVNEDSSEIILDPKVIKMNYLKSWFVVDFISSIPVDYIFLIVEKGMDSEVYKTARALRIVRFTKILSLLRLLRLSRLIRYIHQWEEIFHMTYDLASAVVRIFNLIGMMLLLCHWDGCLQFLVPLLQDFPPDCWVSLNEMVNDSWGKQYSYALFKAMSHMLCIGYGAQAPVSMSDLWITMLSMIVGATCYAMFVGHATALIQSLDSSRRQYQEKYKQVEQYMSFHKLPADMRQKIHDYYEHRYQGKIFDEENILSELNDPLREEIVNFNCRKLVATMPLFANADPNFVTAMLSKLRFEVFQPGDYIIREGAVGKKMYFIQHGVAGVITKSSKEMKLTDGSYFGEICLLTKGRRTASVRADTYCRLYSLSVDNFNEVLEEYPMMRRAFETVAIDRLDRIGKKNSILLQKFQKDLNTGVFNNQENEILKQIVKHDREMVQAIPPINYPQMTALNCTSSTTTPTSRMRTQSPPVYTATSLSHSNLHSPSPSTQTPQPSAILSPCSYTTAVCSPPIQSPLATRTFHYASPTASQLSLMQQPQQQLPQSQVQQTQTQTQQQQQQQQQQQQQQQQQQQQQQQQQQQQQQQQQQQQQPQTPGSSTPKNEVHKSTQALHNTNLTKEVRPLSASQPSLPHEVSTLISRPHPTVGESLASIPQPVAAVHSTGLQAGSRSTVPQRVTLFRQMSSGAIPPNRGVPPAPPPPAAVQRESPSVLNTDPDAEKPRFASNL

CCCCC/C=C\C/C=C\C/C=C\C/C=C\CCCC(=O)O [arachidonic acid]
critical micelle concentration [1]: about 100 μM

CC(C)(C)c1cccc(C(C)(C)C)c1O [2,6-DTBP, 2,6-di-tert-butylphenol]
concentration solubilized in carrier solution [2]: 1 % (W/V)
solubilization in intralipid emulsion [2]: unsuccessful
storage stability of the solution [2]: no phase separation or derivative precipitation
anesthetic activity [3]: total absence of anesthetic efficacy
tolerability of single bolus dose (mice [4]; 80 mg/kg i.p., four mice, seven day observation): all mice tolerated this dose well
tolerability of final bolus (mice [4]; 120 mg/kg bolus after three 40 mg/kg doses, cumulative 240 mg/kg i.p.): not well tolerated
LD75 (mice [4]; acute i.p. dose): ~240 mg/kg
window in which remaining animals died (mice [4]; cumulative 240 mg/kg i.p.): 14 to 18 h
therapeutic index (mice [4]; i.p.): 3 to 5
aqueous solubility limit [5]: 20 to 200 µM
HCN1 antagonism (HCN1 channels): strongest potency and highest efficacy of the four derivatives
mean V1/2 of HCN1 activation (HCN1 channels; 10 μM, n=6): −88.3 mV
mean slope of HCN1 activation (HCN1 channels; 10 μM, n=6): 9.6 mV
V1/2 of HCN1 activation (Boltzmann fit, cell shown in FIG. 3A) (HCN1 channels; 10 μM, single cell): −90.8 mV
slope of HCN1 activation (Boltzmann fit, cell shown in FIG. 3A) (HCN1 channels; 10 μM, single cell): 9.7 mV
post incubation maximal current relative to pre incubation current (HCN1 channels; 20 μM, n=6, difference to control not significant): 108%
HCN1 ΔV1/2 after 20-minute incubation (HCN1 channels; 20 μM, solubilized in DHβCD, n=6): −27.7 mV
HCN1 ΔV1/2 after 20-minute incubation (HCN1 channels; 20 μM, solubilized in DMSO, n=6): −31.9 mV
EC50 (HCN1 channels; 20 min incubation, Xenopus oocytes, TEVC, read-out: EC50 for hyperpolarization of V1/2 of HCN1 gating (Hill fit)): 2300 nM and ~2300 nM
HCN isoform preference (words) (HCN1 channels): retains this selectivity profile; also recorded: retains a propofol-like selective efficacy against HCN1 channels
HCN isoform preference (words) (HCN1 channels; [10]): preferentially inhibit HCN1 with little efficacy against HCN2, 3 or 4 channels
apparent stoichiometry h (Hill coefficient) (HCN1 channels; Hill fit of dose-response): 1.4
maximal efficacy ΔV1/2 of HCN1 gating (HCN1 channels; Hill fit of dose-response): −32 mV
mechanical hyperalgesia/allodynia in ipsilateral paw ([6]; i.p. cumulative dosing, post-PNL mice): ameliorates the behavioral consequences of PNL-induced hyperalgesia; also recorded: selectively suppresses PNL-induced mechanical allodynia and hyperalgesia
mechanical threshold, Logit transformation (allodynia, words) ([6]; threshold set at PW of 0.1): restore selectively the mechanical threshold to that observed in the uninjured paw
whole blood concentration indicated from the chromatogram shown ([7]; 80 mg/kg i.p. in DHβCD): 3.6 µM
total concentration in whole blood (mean) ([7]; 80 mg/kg i.p. in DHβCD, n=6): 10.6 µM
estimated free serum concentration ([7]; analgesic dose of 40-120 mg/kg i.p.): 0.2 to 0.6 µM
expected free concentration ([7]; from total blood concentration after 80 mg/kg i.p.): 0.1 to 0.5 µM
tolerability of acute intravenous exposure (mice [8]): well tolerated
thermal hyperalgesia, ipsilateral HPWL (words) [9]: ameliorates the behavioral consequences of PNL-induced hyperalgesia; also recorded: selectively ameliorates PNL-induced thermal hyperalgesia
thermal nociception, contralateral HPWL [9]: without significantly altering nociceptive behavior
thermal hyperalgesia, ipsilateral HPWL (words) [9, 10]: significantly relieve the neuropathic behavior
